From article PMC7982674, “XMD-17-51 Inhibits DCLK1 Kinase and Prevents Lung Cancer Progression” (Frontiers in Pharmacology, 2021)

Target: T1, Doublecortin-like kinase 1 (DCLK1) (Homo sapiens, UniProt O15075)
T1 construct: Purified kinase-active DCLK1 (cat. no., 02-139, Carna Biosciences)
T1 sequence (O15075 1-740): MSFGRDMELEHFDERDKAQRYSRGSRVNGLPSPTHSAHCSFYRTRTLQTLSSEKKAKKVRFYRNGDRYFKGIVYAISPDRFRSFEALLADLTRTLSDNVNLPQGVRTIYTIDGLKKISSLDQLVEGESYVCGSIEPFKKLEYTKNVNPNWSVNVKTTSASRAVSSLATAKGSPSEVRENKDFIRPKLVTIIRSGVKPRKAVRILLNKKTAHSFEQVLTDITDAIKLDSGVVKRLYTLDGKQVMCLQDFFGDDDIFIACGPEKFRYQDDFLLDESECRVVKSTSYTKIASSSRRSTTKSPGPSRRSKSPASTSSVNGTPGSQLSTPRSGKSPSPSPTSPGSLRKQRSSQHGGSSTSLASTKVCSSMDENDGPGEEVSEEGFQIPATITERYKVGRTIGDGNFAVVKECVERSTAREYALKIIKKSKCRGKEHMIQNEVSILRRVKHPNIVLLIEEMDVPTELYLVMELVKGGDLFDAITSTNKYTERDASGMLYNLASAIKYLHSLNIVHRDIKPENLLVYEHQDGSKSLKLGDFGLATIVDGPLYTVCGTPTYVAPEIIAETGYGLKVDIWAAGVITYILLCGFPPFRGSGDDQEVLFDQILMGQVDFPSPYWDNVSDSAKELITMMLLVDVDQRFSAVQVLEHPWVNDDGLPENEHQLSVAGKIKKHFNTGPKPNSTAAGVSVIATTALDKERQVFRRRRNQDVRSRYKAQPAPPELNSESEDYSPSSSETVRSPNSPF
Experiment: cell-free kinase assay with ULight-CREBtide peptide substrate, […] ATP (Envision readout)
Type: biochemical

Compound: CN1C(=O)c2ccccc2N(C)c2nc(Nc3cnn(C4CCNCC4)c3)ncc21 [XMD-17-51]
- IC50: 14.6 nM
